Measurements published in US12673953B2, “Process for preparing an amorphous form of 2-[3-[4-amino-3-(2-fluoro-4-phenoxyphenyl)pyrazolo[3,4-d]pyrimidin-1-yl]piperidine-1-carbonyl]-4-methyl-4-[4-(oxetan-3-yl)piperazin-1-yl]pent-2-enenitrile” (Principia Biopharma Inc., priority 2019, dated 2026).

How the values were obtained:
Type in all cases: physicochemical
[1] = Modulated differential scanning calorimetry, glass transition temperature (TA Instrument Q2000 DSC); details: for Tg at 25° C., 0% RH: 0% relative humidity
Method: Modulated differential scanning calorimetry (DSC) analysis was completed with a TA Instrument Q2000 DSC. The samples were heated at 2° C. min^−1, temperature modulation parameters of 0.318° C. (amplitude), and over a temperature range of 6-80° C. to 200° C. The samples were analyzed using a closed aluminum pan.

[2] = Thermogravimetric analysis (TA Instruments Q5000 TGA)
Method: Thermal gravimetric analysis of the samples was performed using the TA Instruments Q5000 TGA. Table 5 provides thermogravimetric analysis data for several distinct solid forms of Compound (I), including mass loss information from multiple replicates across different temperature ranges. As above, Comparator 1 corresponds to the solid form of Compound (I) prepared substantially in accordance with the process detailed in Step 1A in Example 1 of WO 2015/127310. Also, as above, Comparator 2 corresponds to the solid form of Compound (I) prepared substantially in accordance with the process detailed in Example 31 of WO 2014/039899. Comparator 3 corresponds to the solid form of Compound (I) prepared substantially in accordance with the process detailed in Step 1 in Example 1 of WO 2015/127310.

[3] = Mean bulk density, mean tapped density and Hausner ratio (modified USP <616>); details: for Hausner ratio: ratio of initial volume to constant volume (Vo/Vf)
Method: Mean bulk density and mean tapped density were determined using a modified method based on USP <616>. Powder was poured into a clean, dry pre-weighed 25 mL cylinder. Powder was added to a total volume of 20 mL to 25 mL without compacting the sample. The mass and initial volume (Vo) of the powder were recorded. The mean bulk density was determined as the average of the mass over initial volume across multiple samples. To determine mean tapped density, the sample was tapped using a Copley JV2000 tapped density tester using the following number of taps: 500, 750, and sets of 1250 taps up to 10,000. The volume was recorded after each set of taps, and the sample was tapped until it reached a constant volume (Vf). The mean tapped density was determined as the average of mass over constant volume across multiple samples. Each sample was analyzed in duplicate. The Hausner ratio was calculated as the ratio of initial volume to the constant volume (Vo/Vf).

[4] = Wet particle size distribution by laser diffraction (Malvern Mastersizer 3000); details: dispersant heptane with 0.2% Span 80
Method: Wet particle size distributions were measured using a Malvern Mastersizer 3000 laser diffraction particle size analyzer, with stir speed set at 2200 rpm. Heptane with 0.2% by volume of Span 80 was used as dispersant. To obtain distribution measurements, the Hydro MV medium volume automated dispersion unit was filled with dispersant and aligned. The background was then measured. 80 to 100 mg of sample weighed into a 20 mL vial, to which approximately 3 mL of dispersant was added. The mass was adjusted based on the particle size, with obscuration between 5% and 16%. The whole sample was added to the Hydro MV unit, and the sample was analyzed five times after a 160 second pre-measurement delay. Analysis time was 20 seconds (10 seconds with the red laser, 10 seconds with the blue laser) with no delay between measurements. Data obtained was processed using Mie theory with a sample refractive index of 1.69 and absorption index of 0.1, using the general purpose model with normal sensitivity and the non-spherical particle type. 15 sets of raw data were averaged to form the Global Mean, which represents the average for a sample. If the sample was determined to be variable, further preparations were examined to determine which results were anomalous. Any anomalous results were discarded. Samples were thoroughly mixed prior to sampling (e.g., some samples were aliquoted using a spinning […]).

SMILES | Tg at 25° C., 0% RH [1] [°C] | Mean bulk density [3] [g/cc] | Mean tapped density [3] [g/cc] | Hausner ratio [3] | Wet particle size distribution D10 [4] [μm] | Wet particle size distribution D50 [4] [μm] | Wet particle size distribution D90 [4] | also measured
CC(C)(C=C(C#N)C(=O)N1CCCC(n2nc(-c3ccc(Oc4ccccc4)cc3F)c3c(N)ncnc32)C1)N1CCN(C2COC2)CC1 (stereo not shown) [Comparator 3, 2-[3-[4-amino-3-(2-fluoro-4-phenoxy-phenyl)pyrazolo[3,4-d]pyrimidin-1-yl]piperidine-1-carbonyl]-4-methyl-4-[4-(oxetan-3-yl)piperazin-1-yl]pent-2-enenitrile] | 90.1 |  |  |  |  |  |  | Mass loss during TGA ([2]; between 30° C. and 100° C.): 3.8% mass loss between 30 °C and 100 °C; Mass loss during TGA ([2]; between 100° C. and 140° C.): 17.6% mass loss between 100 °C and 140 °C
CC(C)(C=C(C#N)C(=O)N1CCCC(n2nc(-c3ccc(Oc4ccccc4)cc3F)c3c(N)ncnc32)C1)N1CCN(C2COC2)CC1 (stereo not shown) [Compound (I) prepared by a spray drying process described he] [2-[3-[4-amino-3-(2-fluoro-4-phenoxy-phenyl)pyrazolo[3,4-d]pyrimidin-1-yl]piperidine-1-carbonyl]-4-methyl-4-[4-(oxetan-3-yl)piperazin-1-yl]pent-2-enenitrile] |  | 0.20 | 0.28 | 1.4 | 5.24 | 13.3 | 28.4 μm | Tg at 25° C., 0% RH ([1]; listed as Compound (I) prepared by spray drying process described herein): 93.8 °C; Mass loss during TGA ([2]; between 35° C. and 230° C.): 1.2% mass loss between 35 °C and 230 °C
CC(C)(C=C(C#N)C(=O)N1CCCC(n2nc(-c3ccc(Oc4ccccc4)cc3F)c3c(N)ncnc32)C1)N1CCN(C2COC2)CC1 (stereo not shown) [Compound (I) prepared by a precipitation process described h] [2-[3-[4-amino-3-(2-fluoro-4-phenoxy-phenyl)pyrazolo[3,4-d]pyrimidin-1-yl]piperidine-1-carbonyl]-4-methyl-4-[4-(oxetan-3-yl)piperazin-1-yl]pent-2-enenitrile] |  |  |  | 1.2 | 1.9 |  | 476-683 μm | Tg at 25° C., 60% RH ([1]; 60% relative humidity, listed as Compound (I) prepared by precipitation process described herein (not micronized)): 69.6 °C; Mass loss during TGA ([2]; between 30° C. and 190° C.): 0.8% mass loss between 30 °C and 190° C.;; Mass loss during TGA ([2]; between 40° C. and 205° C.): 0.4% mass loss between 40 °C and 205° C.;; Mass loss during TGA ([2]; between 40° C. and 225° C.): 0.7% mass loss between 40 °C and 225 °C; Mass loss during TGA ([2]; between 43° C. and 230° C.): 1.9% mass loss between 43 °C and 230° C.;; Mass loss during TGA ([2]; between 44° C. and 230° C.): 1.0% mass loss between 44 °C and 230 °C
CC(C)(C=C(C#N)C(=O)N1CCCC(n2nc(-c3ccc(Oc4ccccc4)cc3F)c3c(N)ncnc32)C1)N1CCN(C2COC2)CC1 (stereo not shown) [Comparator 1, 2-[3-[4-amino-3-(2-fluoro-4-phenoxy-phenyl)pyrazolo[3,4-d]pyrimidin-1-yl]piperidine-1-carbonyl]-4-methyl-4-[4-(oxetan-3-yl)piperazin-1-yl]pent-2-enenitrile] |  | 0.28 | 0.39 | 1.4 | 18.3 | 237 | 694 μm | Mass loss during TGA ([2]; between 40° C. and 118° C.): 3.3% mass loss between 40 °C and 118 °C; Mass loss during TGA ([2]; between 118° C. and 237° C.): 3.2% mass loss between 118 °C and 237 °C
CC(C)(C=C(C#N)C(=O)N1CCCC(n2nc(-c3ccc(Oc4ccccc4)cc3F)c3c(N)ncnc32)C1)N1CCN(C2COC2)CC1 (stereo not shown) [Comparator 2, 2-[3-[4-amino-3-(2-fluoro-4-phenoxy-phenyl)pyrazolo[3,4-d]pyrimidin-1-yl]piperidine-1-carbonyl]-4-methyl-4-[4-(oxetan-3-yl)piperazin-1-yl]pent-2-enenitrile] | 90.1 | 0.20 | 0.27 | 1.4 | 56.9 | 258 | 575 μm | Mass loss during TGA ([2]; between 40° C. and 135° C.): 3.7% mass loss between 40 °C and 135 °C; Mass loss during TGA ([2]; between 135° C. and 233° C.): 2.3% mass loss between 135 °C and 233 °C
